# Results: ChEMBL document CHEMBL2021832, “On the search for potential anti-Trypanosoma cruzi drugs: synthesis and biological evaluation of 2-hydroxy-3-methylamino and 1,2,3-triazolic naphthoquinoidal compounds obtained by click chemistry reactions” (Eur J Med Chem, 2012)
# Activity calls are given as the source filed them. The rule behind the calls is not given here.
# Tests used:
# [1] = Selectivity index, ratio of LC50 for mouse embryo HMC to IC50 for bloodstream form of Trypanosoma cruzi Y
# [2] = test system: Trypanosoma cruzi; assay: Trypanocidal activity against bloodstream form of Trypanosoma cruzi Y isolated from albino mouse blood after 24 hrs by neubauer chamber analysis; assay type: functional, organism-based
# [3] = Cytotoxicity against mouse embryo HMC after 24 hrs by Alamar blue assay; details: mouse embryo HMC cells, read-out: LC50
# [4] = test system: Biomphalaria glabrata; assay: Molluscicidal activity against Biomphalaria glabrata; assay type: functional, organism-based
# [5] = test system: Trypanosoma cruzi; assay: Ratio of benznidazole IC50 to compound IC50 for bloodstream form of Trypanosoma cruzi Y; assay type: functional
Structure (SMILES),IC50 [2] [µM],further results
O=C1C=C(Cl)C(=O)c2ccccc21,12.3,Ratio LC50/IC50 [1]: 3.6; CC50 at 24 h [3]: 41.3 µM
CC(C)=CCC1=C(OS(=O)(=O)c2ccc(C)cc2)C(=O)c2ccccc2C1=O,158,
CCCN(CCC)CC1=C(O)C(=O)c2ccccc2C1=O,206,Activity [4]: Active
[N-]=[N+]=NC1=CC(=O)c2ccccc2C1=O,41.6,
CC(C)(CO)NCC1=C(O)C(=O)c2ccccc2C1=O,370,Activity [4]: Active
O=C1C(O)=C(CN2CC3CCC2CC3)C(=O)c2ccccc21,397,Activity [4]: Active
COc1ccc(-c2cn(C3=CC(=O)c4ccccc4C3=O)nn2)cc1,45.8,
CC1(C)OC2=C(C(=O)C(=O)c3ccccc32)C1n1cc(-c2ccc(F)cc2)nn1 (stereo not given),20.8,Ratio IC50 [5]: 2.5
O=C1C=C(n2cc(-c3ccc(Br)cc3)nn2)C(=O)c2ccccc21,492,
CC1(C)CC2=C(O1)c1ccccc1C(=O)C2=O [NOR-BETA-LAPACHONE],> 4800,
O=C1C=C(O)C(=O)c2ccccc21 [LAWSONE],> 2500,
O=C1C(Cl)=C(n2cc(-c3ccccc3)nn2)C(=O)c2ccccc21,42,
CCOC(=O)c1cn(C2=CC(=O)c3ccccc3C2=O)nn1,67.6,
CC1(C)OC2=C(C(=O)C(=O)c3ccccc32)C1n1cc(-c2ccc([N+](=O)[O-])cc2)nn1 (stereo not given),21.8,Ratio IC50 [5]: 2.5
CC(C)(O)c1cn(C2=CC(=O)c3ccccc3C2=O)nn1,80.2,
CC(C)=CCC1=C(OS(C)(=O)=O)C(=O)c2ccccc2C1=O,25.7,Ratio LC50/IC50 [1]: 0.6; CC50 at 24 h [3]: 16.7 µM
O=C1C=C(n2cc(CO)nn2)C(=O)c2ccccc21,17.7,Ratio LC50/IC50 [1]: 6.1; CC50 at 24 h [3]: 107 µM; Ratio IC50 [5]: 5.8
[N-]=[N+]=NC1=C(Cl)C(=O)c2ccccc2C1=O,51.8,Ratio IC50 [5]: 2
COc1ccc(-c2cn(C3C4=C(OC3(C)C)c3ccccc3C(=O)C4=O)nn2)cc1 (stereo not given),359,
Cc1ccc(-c2cn(C3C4=C(OC3(C)C)c3ccccc3C(=O)C4=O)nn2)cc1 (stereo not given),39.6,Ratio IC50 [5]: 2.5
Cc1ccc(-c2cn(C3=CC(=O)c4ccccc4C3=O)nn2)cc1,113,
O=C1C=C(n2cc(-c3ccc([N+](=O)[O-])cc3)nn2)C(=O)c2ccccc21,2010,
CC1(C)OC2=C(C(=O)C(=O)c3ccccc32)C1n1cc(-c2ccc(Br)cc2)nn1 (stereo not given),102,
O=C1C=C(n2cc(-c3ccccc3)nn2)C(=O)c2ccccc21,10.9,Ratio LC50/IC50 [1]: 18.9; CC50 at 24 h [3]: 206 µM; Ratio IC50 [5]: 9.5
O=C1C(O)=C(CN2CCCC2)C(=O)c2ccccc21,396,Activity [4]: Active
O=C1C(O)=C(CNC2CCCC2)C(=O)c2ccccc21,361,Activity [4]: Active
